Reference: patent US20230210906A1, “Composite 3D Brain Organoids with Optic Structures, Uses Thereof and Culture Medium for Obtaining Them” (priority 2022, published 2023)
Where two headings read alike, the source gives them in different places.

Assays:
[1] = test system: sodium channel of organoid neurons (cell lines IMR-90 and GM25256); type: cell-based, human
[2] = test system: optic vesicle brain organoids (cell line GM25256)
Protocol: Optic vesicle organoids of day 40 to 50 were transferred to wells of a 12-wellplate each with 2 ml of optic organoid medium and kept in absolute darkness at 37° C. and 5% CO2 for 24 hours before electroretinogram (ERG) experiments. For ERG, each organoid was placed under red light in an electrode chamber. The electrode chamber was then placed into the dark chamber of the ERG apparatus and connected to the superfusion system containing optic organoid medium. For dose dependent light sensitivity, organoids were exposed to 500 milliseconds long flashes of 2000, 20.000 and 200.000 mlux. Each light intensity was repeated three times in a time interval of 3 min. before the next higher light intensity was applied and responses were recorded. Speed of superfusion was 0.5 ml/min.
For a third experiment, organoids were superfused in optic organoid medium with higher speed of 2 ml/min. […] For isolating the A-wave by blocking signal transduction from photoreceptors to next the retinal cell layers, 10 mM aspartate was added to the medium after the equilibration time and electric response was continuously recorded. Finally, aspartate was washed out by adding optic organoid medium without aspartate into the system while recording of electric signals as response to flashes.

[3] = test system: rod-bipolar synaptic disjunction; details: cited from earlier work
[4] = test system: A2E formation and lipofuscin accumulation; details: mouse model of recessive Stargardt's macular degeneration; cited from earlier work
[5] = test system: cells of the cell line IMR90; experiment: Optic vesicle formation in iPSC-derived 3D brain organoids exposed to retinol acetate; type: cell-based, human; details: for Percentage of organoids with optic vesicles (%): cell line IMR90
Protocol: It is important to start differentiation with a well-maintained human iPS cell culture. Cells were splitted once after thawing, mycoplasma tested and checked for appropriate stem cell morphology. Before inducing neural differentiation, iPS cells were dissociated to single cells. Therefore, iPS cells were once carefully washed with pre-warmed DMEM/F12 (Gibco) and then treated for 5 min. at 37° C. with Accutase (Sigma-Aldrich). After cell collection, centrifuging and counting, cells were diluted in neural induction medium (NIM, Stem cell technologies) plus Rockinhibitor (10 μM, Y-27632 2HCl, Selleck Chem) at a concentration of 1×10^5 cells per ml. 100 μl of this cell suspension was given into each well of a 96-well v-bottom low adherent plate and incubated at 37° C. and 5% CO2. Half of the medium was changed every day for 5 days until neurospheres were formed.
At day 5 of neural induction, the neurospheres were collected carefully with a cut […] pipette tip and transferred to a 100 mm petri dish containing “neurosphere medium” (Table 9). Additionally, 0.1% Matrigel was added to the medium and neurospheres were incubated for 5 days at 37° C. and 5% CO2. At day 3, 2 ml of “optic vesicle 3D brain organoid medium” (Table 10) containing retinol acetate was added. At day 5, neurospheres were transferred to spinner flasks containing 100 ml “optic vesicle 3D brain organoid medium” ([…]) to let the neurospheres developing to optic vesicle containing brain organoids. […] Optic vesicle organoids were collected for experiments at day 20, 30 and 50. For each cell line, we performed at least 3-4 rounds (batches) of optic vesicle 3D brain organoid generation. Each batch comprises of starting from thawing iPSCs until generating optic vesicle organoids. Morphological and functional optic vesicles brain organoids were easily identified by visibly pigmented areas and used for further analyses.

Compound: NC1=N[C@H](O)[C@H]2[C@H]3O[C@]4(O)O[C@@H]([C@@H](O)[C@@]2(N1)[C@@H]4O)[C@]3(O)CO [TTX, Tetrodotoxin]
- Effect on Na+ current (inward current) of neurons [1]: blocked Na+ current
- Sensitivity of outward (outwardly rectifying K+) current [1]: TTX insensitive

Compound: N[C@@H](CC(=O)O)C(=O)O [aspartate]
- ERG amplitude upon light flashes, single organoid recording [2]: < −400 pV
- ERG hyperpolarization after washout of aspartate [2]: −147 pV
- ERG hyperpolarization on average during aspartate treatment [2]: −278 pV
- Effect on ERG b-wave [2]: blocked the b-wave

Compound: O=S(=O)(c1cccc2cnccc12)N1CCCNCC1 [fasudil]
- Effect on rod-bipolar synaptic disjunction ([3]; intravitreal injection): effective
- Effect on rod-bipolar synaptic disjunction ([3]; subretinal injection): reduces rod-bipolar synaptic disjunction

Compound: CC1=C(/C=C/C(C)=C/C=C/C(C)=C\C(=O)O)C(C)(C)CCC1 [isotretinoin]
- Effect on A2E formation and lipofuscin accumulation [4]: inhibits A2E formation and lipofuscin accumulation

Compound: retinol acetate [Retinoic acetate]
- Percentage of organoids with optic vesicles (%) ([5]; 40 nM): 21%
- Yield of optic vesicle brain organoids ([5]; 60 nM, among concentrations ranging from 0 to 120 nM): best results (highest yield of optic vesicle brain organoids)
- Formation of pigmented structures (possibly primordial eye fields) ([5]; 60 nM, at around day 30): reproducibly induced the formation of pigmented structures
- Percentage of organoids with optic vesicles (%) ([5]; 60 nM): 80%
- Percentage of organoids with optic vesicles (%) ([5]; 100 nM): 15%
- Percentage of organoids with optic vesicles (%) ([5]; 150 nM): 10%
- Percentage of organoids with optic vesicles (%) ([5]; 200 nM): 10%
- Percentage of organoids with optic vesicles (%) ([5]; 250 nM): 8%
